The values below come from US20230189821A1, “PESTICIDAL COMPOSITIONS WITH ENHANCED PHYSICAL CHARACTERISTICS” (Terramera, Inc., priority 2020, published 2023).

The data set is described as follows: Melting point of oil/aliphatic acid mixtures by differential scanning calorimeter (DSC). Type of data set: physicochemical. As for the experimental part: Eleven exemplary pesticidal compositions, each comprising a different mixture ratio of neem oil and octanoic acid, were prepared according to the following description. Each composition comprised a combined 10-20 mg of cold-pressed neem oil and octanoic acid. The neem oil and octanoic acid were passively mixed by commingling in liquid phase in the testing vessel (an aluminum pan with an aluminum cap) at a temperature above each ingredient's melting point. Mixture ratios were determined by weight—e.g. a 10 mg mixture in 60:40 ratio would comprise 6 mg of neem oil and 4 mg of octanoic acid. The mixture's melting point was then measured by a differential scanning calorimeter (DSC), and particularly by a TA Instruments® DSC Q2000™ differential scanning calorimeter. The following method was used for DSC measurement of each mixture: the mixture was equilibrated at 40° C., then isothermally held for 15 minutes, then equilibrated at −30° C., and then ramped at 5° C./minute to 70° C. […]
Eleven exemplary pesticidal compositions, each comprising a different mixture ratio of palm oil and octanoic acid, were prepared according to the following description. […] Mixture ratios were determined by weight—e.g. a 10 mg mixture in 60:40 ratio would comprise 6 mg of palm oil and 4 mg of octanoic acid. The mixture's melting point was then measured by differential scanning calorimeter. […]
Eleven exemplary pesticidal compositions, each comprising a different mixture ratio of coconut oil and octanoic acid, were prepared according to the following description. […] Mixture ratios were determined by weight—e.g. a 10 mg mixture in 60:40 ratio would comprise 6 mg of coconut oil and 4 mg of octanoic acid. The mixture's melting point was then measured by differential scanning calorimeter. […]
Eleven exemplary pesticidal compositions, each comprising a different mixture ratio of karanja oil and octanoic acid, were prepared according to the following description. […] Mixture ratios were determined by weight—e.g. a 10 mg mixture in 60:40 ratio would comprise 6 mg of karanja oil and 4 mg of octanoic acid. […]
On to `CC/C=C/CC(=O)O` [trans-3 hexenoic acid], for which the “Melting Point” value was “about 11.36 °C”. As to `CCCCCCCCCC(=O)O` [decanoic acid], the “Melting Point” value is “about 11.36 °C”. As for `CCCCCCCC/C=C\CCCCCCCC(=O)O` [oleic acid], the entry is “about 11.31 °C”.
